Measured values as given in US20240067632A1, “WEE1 Degrading Compounds and Uses Thereof” (Bristol-Myers Squibb Company, priority 2022, published 2024).
Like-named read-outs stand apart in the source and are kept apart here.

Experiments:
WEE1 = target: T1, WEE1 (Homo sapiens, UniProt P30291+Q96SW2); test: WEE1-ePL degradation assay (LentiX-WEE1-ePL-GSPT1-ND cells, InCELL Hunter luminescence, 4 h); assay type: cell-based; settings: 293T-LentiX WEE1-ePL cells; for DC50: read-out: 293T-LentiX WEE1-ePL Degradation 4 hr (EC50)
T1 construct: C-terminal ePL-tagged (DiscoverX, Fremont, CA) full-length WEE1 expression construct; expressed in transfected cells; host or cells: LentiX-HEK293T (Invitrogen), lentiviral transduction; co-expressing GSPT1-GN (G576N, lacking the first 158 amino acids)
Outline: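 HEK293T cells stably expressing C-terminal ePL-tagged full-length WEE1, 2500 cells/well, treated 4 h at 37° C with a 10-point 3-fold series from 1 or 10 uM. Remaining WEE1-ePL read by InCELL Hunter luminescence after 30 min. EC50 came from a four-parameter logistic fit, with Ymax set from DMSO control.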

MKN45 cells = test: MKN45 cell proliferation assay (Cell-Titer-Glo, 120 h); assay type: cell-based; settings: for EC50: Homo sapiens, MKN-45, 120 h, Cell-Titer-Glo, read-out: MKN45 Cell Prolif. 120 hr (EC50); for MKN45 Cell Prolif. 120 hr (Ymin-Obs): minimal percent of DMSO control observed in the concentrations tested
Outline: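 Growth inhibition was read as blank-corrected Cell-Titer-Glo luminescence expressed as percent DMSO control after 120 h at 37 C, 400 cells/well. Compounds tested in triplicate as 10-point half-log series from 1 or 10 uM, 0.1% DMSO; four-parameter fit gave EC50, and lowest observed percent control was reported as Ymin-obs.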

[1] = lower limit of the fit (0 = luciferase inhibitor, Ymax = DMSO control)
[2] = lower limit of the fit (Ymin=0 luciferase inhibitor, Ymax DMSO control)

Row | SMILES | 293T-LentiX WEE1-ePL Degradation 4 hr (Ymin) (WEE1; [1]) | DC50 (WEE1) | EC50 (MKN45 cells; growth inhibition) | MKN45 Cell Prolif. 120 hr (Ymin-Obs) (MKN45 cells) | 293T-LentiX WEE1-ePL Degradation 4 hr (Ymin) (WEE1; [2]) | EC50 (MKN45 cells)
1 | Cc1ccnc(CN2CC[C@H](Oc3ccc4c(c3)CN(C3CCC(=O)NC3=O)C4=O)C2)c1 (stereo partly drawn) [3-(5-{[(3S)-1-[(4-methylpyridin-2-yl)methyl]pyrrolidin-3-yl]oxy}-1-oxo-2,3-dihydro-1H-isoindol-2-yl)piperidine-2,6-dione] | 38.55 | 65.4 nM | 1330 nM | 42.67 |  | 
2 | O=C1CCC(N2Cc3cc(O[C@H]4CCN(Cc5ccc6nc([C@H]7CC[C@@H](O)C7)ccc6c5)C4)ccc3C2=O)C(=O)N1 (stereo partly drawn) [3-(5-{[(3S)-1-({2-[(1S,3R)-3-hydroxycyclopentyl]quinolin-6-yl}methyl)pyrrolidin-3-yl]oxy}-1-oxo-2,3-dihydro-1H-isoindol-2-yl)piperidine-2,6-dione] | 31 | 2.99 nM | 2.66 nM | 7.68 |  | 
3 | CN(C)C1CCN(c2ccc3cc(CN4CC[C@H](Oc5ccc6c(c5)CN(C5CCC(=O)NC5=O)C6=O)C4)ccc3n2)CC1 (stereo partly drawn) [3-(5-{[(3S)-1-({2-[4-(dimethylamino)piperidin-1-yl]quinolin-6-yl}methyl)pyrrolidin-3-yl]oxy}-1-oxo-2,3-dihydro-1H-isoindol-2-yl)piperidine-2,6-dione] |  | 26.2 nM |  | 15.14 | 32.07 | 19.7 nM
4 | Cc1ccc2cc(CN3C[C@@H](Oc4ccc5c(c4)CN(C4CCC(=O)NC4=O)C5=O)C[C@H]3C)ccc2n1 (stereo partly drawn) [3-(5-{[(3S,5R)-5-methyl-1-[(2-methylquinolin-6-yl)methyl]pyrrolidin-3-yl]oxy}-1-oxo-2,3-dihydro-1H-isoindol-2-yl)piperidine-2,6-dione] | 88.5 |  | > 10000 nM | 80.29 |  | 
5 | O=C1CCC(N2Cc3cc(O[C@H]4CCN(Cc5ccc6nc(N7C[C@@H]8C9CCC(O9)[C@@H]8C7)ncc6c5)C4)ccc3C2=O)C(=O)N1 (some centres unmarked) | 35 | 9.25 nM | 10.5 nM | 12.82 |  | 
6 | O=C1CCC(N2Cc3cc(O[C@H]4CCN(Cc5ccc6nc(N7CCC[C@@]78CCOC8)ccc6c5)C4)ccc3C2=O)C(=O)N1 (stereo partly drawn) [3-(5-{[(3S)-1-({2-[(5S)-7-oxa-1-azaspiro[4.4]nonan-1-yl]quinolin-6-yl}methyl)pyrrolidin-3-yl]oxy}-1-oxo-2,3-dihydro-1H-isoindol-2-yl)piperidine-2,6-dione] | 47 | 3.66 nM | 10.1 nM | 26.44 |  | 
7 | O=C1CCC(N2Cc3cc(O[C@H]4CCN(Cc5ccc6nc(NC(=O)C7CCOCC7)ccc6c5)C4)ccc3C2=O)C(=O)N1 (stereo partly drawn) [N-(6-{[(3S)-3-{[2-(2,6-dioxopiperidin-3-yl)-1-oxo-2,3-dihydro-1H-isoindol-5-yl]oxy}pyrrolidin-1-yl]methyl}quinolin-2-yl)oxane-4-carboxamide] | 29 | 1.78 nM | 2.03 nM | 5.73 |  | 
8 | COC[C@@H]1CC[C@H](c2ccc3cc(CN4CC[C@H](Oc5ccc6c(c5)CN(C5CCC(=O)NC5=O)C6=O)C4)ccc3n2)C1 (stereo partly drawn) [3-(5-{[(3S)-1-({2-[(1S,3R)-3-(methoxymethyl)cyclopentyl]quinolin-6-yl}methyl)pyrrolidin-3-yl]oxy}-1-oxo-2,3-dihydro-1H-isoindol-2-yl)piperidine-2,6-dione] |  | 5.9 nM |  | 8.786 | 32.37 | 2.56 nM
9 | O=C1CCC(N2Cc3cc(O[C@H]4CCN(Cc5ccc6nc(C7CCOCC7)ccc6c5)C4)ccc3C2=O)C(=O)N1 (stereo partly drawn) [3-(5-{[(3S)-1-{[2-(oxan-4-yl)quinolin-6-yl]methyl}pyrrolidin-3-yl]oxy}-1-oxo-2,3-dihydro-1H-isoindol-2-yl)piperidine-2,6-dione] | 32.6 | 2.83 nM | 4.9 nM | 12.83 |  | 
10 | O=C1CCC(N2Cc3cc(O[C@H]4CCN(Cc5ccc6ncccc6c5)C4)ccc3C2=O)C(=O)N1 (stereo partly drawn) [3-(1-oxo-5-{[(3S)-1-[(quinolin-6-yl)methyl]pyrrolidin-3-yl]oxy}-2,3-dihydro-1H-isoindol-2-yl)piperidine-2,6-dione] | 28.66 | 3.45 nM | 30.4 nM | 14.87 |  | 
11 | O=C1CCC(N2Cc3cc(O[C@H]4CCN(Cc5ccc6nc([C@H]7CC[C@H](O)CC7)ccc6c5)C4)ccc3C2=O)C(=O)N1 (stereo partly drawn) [3-(1-oxo-5-{[(3S)-1-({2-[(1r,4r)-4-hydroxycyclohexyl]quinolin-6-yl}methyl)pyrrolidin-3-yl]oxy}-2,3-dihydro-1H-isoindol-2-yl)piperidine-2,6-dione] | 30 | 4.67 nM | 2.79 nM | 7.3325 |  | 
12 | COC1CN(c2ccc3cc(CN4CC[C@H](Oc5ccc6c(c5)CN(C5CCC(=O)NC5=O)C6=O)C4)ccc3n2)C1 (stereo partly drawn) [3-(5-{[(3S)-1-{[2-(3-methoxyazetidin-1-yl)quinolin-6-yl]methyl}pyrrolidin-3-yl]oxy}-1-oxo-2,3-dihydro-1H-isoindol-2-yl)piperidine-2,6-dione] | 36 | 2.3 nM | 6.82 nM | 11.6 |  | 
13 | Cc1nc2ccccc2cc1CN1CC[C@H](Oc2ccc3c(c2)CN(C2CCC(=O)NC2=O)C3=O)C1 (stereo partly drawn) [3-(5-{[(3S)-1-[(2-methylquinolin-3-yl)methyl]pyrrolidin-3-yl]oxy}-1-oxo-2,3-dihydro-1H-isoindol-2-yl)piperidine-2,6-dione] | 34.08 | 8.04 nM | 34.8 nM | 11.29 |  | 
14 | CO[C@H]1CC[C@@H](c2ccc3cc(CN4CC[C@H](Oc5ccc6c(c5)CN(C5CCC(=O)NC5=O)C6=O)C4)ccc3n2)C1 (stereo partly drawn) [3-(5-{[(3S)-1-({2-[(1R,3S)-3-methoxycyclopentyl]quinolin-6-yl}methyl)pyrrolidin-3-yl]oxy}-1-oxo-2,3-dihydro-1H-isoindol-2-yl)piperidine-2,6-dione] | 28.33 | 3.2 nM | 0.741 nM | 7.233 |  | 
15 | COc1cnc2ccc(CN3CC[C@H](Oc4ccc5c(c4)CN(C4CCC(=O)NC4=O)C5=O)C3)cc2c1 (stereo partly drawn) [3-(5-{[(3S)-1-[(3-methoxyquinolin-6-yl)methyl]pyrrolidin-3-yl]oxy}-1-oxo-2,3-dihydro-1H-isoindol-2-yl)piperidine-2,6-dione] | 34 | 3.25 nM | 19.1 nM | 12.81 |  | 
16 | O=C1CCC(N2Cc3cc(O[C@H]4CCN(Cc5ccc6nc(N7C[C@H]8CCO[C@H]8C7)ccc6c5)C4)ccc3C2=O)C(=O)N1 (stereo partly drawn) [3-(5-{[(3S)-1-({2-[(3aR,6aR)-hexahydro-2H-furo[2,3-c]pyrrol-5-yl]quinolin-6-yl}methyl)pyrrolidin-3-yl]oxy}-1-oxo-2,3-dihydro-1H-isoindol-2-yl)piperidine-2,6-dione] | 37 | 3.2 nM | 6.09 nM | 14.13 |  | 
17 | C[C@@H]1CN(Cc2cc(F)c3nc([C@H]4CCOC4)ccc3c2)C[C@H]1Oc1ccc2c(c1)CN(C1CCC(=O)NC1=O)C2=O (stereo partly drawn) [3-(5-{[(3S,4R)-1-({8-fluoro-2-[(3R)-oxolan-3-yl]quinolin-6-yl}methyl)-4-methylpyrrolidin-3-yl]oxy}-1-oxo-2,3-dihydro-1H-isoindol-2-yl)piperidine-2,6-dione] |  | 1.56 nM |  | 8.038 | 30.53 | 1.3 nM
18 | CC(C)(O)c1ccc2cc(CN3CC[C@H](Oc4ccc5c(c4)CN([C@H]4CCC(=O)NC4=O)C5=O)C3)ccc2n1 [(3S)-3-(5-{[(3S)-1-{[2-(2-hydroxypropan-2-yl)quinolin-6-yl]methyl}pyrrolidin-3-yl]oxy}-1-oxo-2,3-dihydro-1H-isoindol-2-yl)piperidine-2,6-dione] | 33.92 | 1.69 nM | 10.1 nM | 12.89 |  | 
